# In PMC10610545, “Preclinical Evaluation of an Imidazole-Linked Heterocycle for Alzheimer’s Disease” (Pharmaceutics, 2023):
# Key:
# [1] = Metabolic stability in human liver microsomes; format: in vitro ADME
# Experimental: The objective of this study was to evaluate the metabolic stability of LSL33 and its depletion rate in the presence of HLM. This was achieved by incubating LSL33 with microsomes and monitoring parent disappearance using LC/MSMS (Table S6).
# Metabolic stability of LSL33 in human liver microsomes
# The reaction was initiated by adding HLM (1 mg/mL) to an equal volume of buffer solution containing the test compound and cofactors at the proper concentrations. Reactions without NADPH were also incubated to rule out non-NADPH metabolism or chemical instability in the […]
# incubation course. All reactions were terminated using 60 µL of ice-cold acetonitrile at 0, 5, 15, […]
# 30, 45, and 60 min. […] All experiments were conducted in triplicate. Samples were monitored to parent compound disappearance by LC-MS in MRM mode according to a quantitation method for each compound.
# LSL33 was dissolved in DMSO at 0.5 mg/mL. Assay conditions, total incubation volume 400 µL, protein concentration 1 mg/mL, NADPH, 1.3 mM. Preparation of reagents: Test compound, the final concentration in the assay. […]
# prepared by dissolving appropriate amount of N ADPH in 100 mM potassium phosphate buffer. […]
# from Sigma-Aldrich, Germany. The equipment needed for the study was Beckman Coulter […]
# injector, Api4000 Mass Spectrometer.
# Bio-Analysis: Samples were monitored for parent compound disappearance by LC-MS in MRM mode according to a previously verified quantitation method for each compound.
# Data Analysis: The peak area of analyte was used to calculate the percentage of remaining compound at each incubation time (Table S7). The natural logarithm of the percentage of reamining LSL33 was plotted versus incubation time to calculate the half -life using the following […]
# time) see Table S8 and Figure S11 . Intrinsic clearance was determined by the following equation:
# CLint H = Ln 2/t1/2 (min) x volume incubation (mL)/microsomal protein (mg) x 45 (MPPGL) 1500 g human liver/ 70 Kg human body weight. Units for CL int are usually expressed as mL/min/mg microsomal protein (table S8), MPPGL = referred to as mg microsomal protein per gram liver.
# The categories classification
# Table S6. Summary of LC-MS conditions
# Ionization Mode Electrospray positive
# Sample matrix Microsomes+ NADPH + buffer […]
# Mobile phase [Water: Acetonitrile :0.1% Formic Acid]
# [2] = Pharmacokinetics of LSL33 in CD1 mice (plasma and brain)
# [3] = male, CD1, mouse, brain, po, 2 mg/kg
# [4] = male, CD1, mouse, plasma, oral, 2 mg/kg
structure (smiles),measurement,setting,value
"Cl.c1ccc2sc(-c3ncc[nH]3)cc2c1 [LSL33, 2-(Benzo[b]thiophene-2-yl)-1H-imidazole hydrochloride]",hepatic clearance category,[1]; HLM intrinsic clearance bands,high
same,% Compound Remaining,"[1]; HLM, minus NADPH, 0 min",100.0 ± 10.2%
same,% Compound Remaining,"[1]; HLM, minus NADPH, 60 min",96.6 ± 9.0%
same,% Compound Remaining,"[1]; HLM, plus NADPH, 0 min",100.0±9.0%
same,% Compound Remaining,"[1]; HLM, plus NADPH, 5 min",4.6 ± 0.4%
same,% Compound Remaining,"[1]; HLM, plus NADPH, 15 min",0.1 ± 0.1%
same,% Compound Remaining,"[1]; HLM, plus NADPH, 30 min",0.2 ± 0.1%
same,% Compound Remaining,"[1]; HLM, plus NADPH, 45 min",1.3 ± 0.2%
same,% Compound Remaining,"[1]; HLM, plus NADPH, 60 min",0.2 ± 0.3%
same,half-life,"[1]; human, human liver microsomes, HLM",1.58 min
same,concentration at 15 min,[2]; [3],15.2 ng/g
same,concentration at 30 min,[2]; [3],6.7 ng/g
same,AUC(0-inf),[2]; [4],3050 ng·h/mL
same,AUC(0-t),[2]; [4],2950 ng·h/mL
same,Cmax,[2]; [4],950 ± 620 ng/mL
same,Tmax,[2]; [4],15 min
same,half-life,"[2]; male, CD1, mouse, plasma, oral, 2 mg/kg, t1/2β (terminal elimination half-life), CD1 mice, single 2 mg/kg dose",313 min
same,AUC0-1440/AUC0-∞ ratio,"[2]; plasma, 2 mg/kg",0.97
same,t1/2β (terminal elimination half-life),"[2]; plasma, CD1 mice, single 2 mg/kg dose, 2 mg/kg",312.81 ± 34.90 min
same,maximum mean concentration in plasma as share of the drug administered,[2]; single oral dose,≤ 1%
